How the values were obtained:
[1] = system: NCI-H292 lung cancer cells; assay: FDA drug screening, complete media vs cholesterol-free media without statin (TABLE 1); format: cell-based, human
[2] = system: NCI-H292 lung cancer cells; assay: FDA drug screening, complete media vs cholesterol-free media with simvastatin (TABLE 2); format: cell-based, human; conditions: for Cholesterol-free media + simvastatin (0.04 μM) / Complete Media: NCI-H292 cells
[3] = NCI-H292 cells in cholesterol-free media without statin
[4] = NCI-H292 cells in complete media
[5] = drug in cholesterol-free media with simvastatin 0.04 μM
[6] = complete media vs cholesterol-free media + simvastatin (0.04 μM), […]
[7] = NCI-H292 cells, cholesterol-free media without statin, FDA drug library screen
[8] = NCI-H292 cells, complete media, FDA drug library screen
[9] = complete vs cholesterol-free media, […]
[10] = NCI-H292 cells, cholesterol-free media without statin
[11] = FDA drug library screen, cholesterol-free media with simvastatin 0.04 μM
[12] = FDA drug library screen, complete media
[13] = complete vs cholesterol-free media, greater than 0 enhanced anti-cancer activity, about 0 neutral, below 0 antagonists
[14] = complete media minus cholesterol-free media + simvastatin, >0 enhanced anti-cancer activity, about 0 neutral, <0 antagonist
[15] = Complete minus Cholesterol-free, greater than 0 enhanced anti-cancer activity, about 0 neutral, below 0 antagonist
[16] = NCI-H292 cells, FDA drug library screen, cholesterol-free media without statin
[17] = NCI-H292 cells, FDA drug library screen, complete media
[18] = complete media vs cholesterol-free media + simvastatin (0.04 μM), >0 enhanced anti-cancer activity, about 0 neutral, <0 antagonist
[19] = cholesterol-free media with simvastatin 0.04 μM, cell growth value in FDA drug screen
[20] = complete media, cell growth value in FDA drug screen
[21] = Complete minus Cholesterol-free, greater than 0 enhanced anti-cancer activity, about 0 neutral, below 0 antagonists
[22] = Complete minus Cholesterol-free, >0 enhanced anti-cancer activity, about 0 neutral, <0 antagonist
[23] = FDA library drug in cholesterol-free media with simvastatin 0.04 μM
[24] = FDA library drug in complete media
[25] = cholesterol-free media with simvastatin 0.04 μM, FDA drug library screen (TABLE 2)
[26] = complete media, FDA drug library screen (TABLE 2)
[27] = complete media minus cholesterol-free media + simvastatin (0.04 μM), >0 enhanced anti-cancer activity, about 0 neutral, <0 antagonist

## CC(C)C(Br)C(=O)NC(N)=O (centres unmarked) [Bromisoval]
[1]; Complete minus Cholesterol-free, […]
  Difference: −0.47
[1]; [3]
  Cholesterol-free: 1.334
[1]; [4]
  Complete: 0.8605
[2]; [5]
  Cholesterol-free media + simvastatin (0.04 μM): 1.086
[2]; drug in complete media
  Complete Media: 0.9233
[2]; [6]
  Difference: −0.16

## Cc1cc(C2=NOC(c3cc(Cl)cc(Cl)c3)(C(F)(F)F)C2)ccc1C(=O)NCC(=O)NCC(F)(F)F (centres unmarked) [Fluralaner]
[1]; [7]
  Cholesterol-free: 0.6434
[1]; [8]
  Complete: 1.375
[1]; [9]
  Difference: 0.73
[2]; [5]
  Cholesterol-free media + simvastatin (0.04 μM): 1.609
[2]; drug in complete media
  Complete Media: 1.41
[2]; [6]
  Difference: −0.20

## Teprenone
[1]; [10]
  Cholesterol-free: 1.353
[1]; [9]
  Difference: −0.31
[2]; [11]
  Cholesterol-free media + simvastatin (0.04 μM): 1.117
[2]; [12]
  Complete Media: 0.9777
[2]; [6]
  Difference: −0.14

## COc1cc2nccc(Oc3ccc(NC(=O)Nc4cc(C)on4)c(Cl)c3)c2cc1OC [Tivozanib]
[1]; [10]
  Cholesterol-free: 1.298
[1]; NCI-H292 cells, complete media
  Complete: 0.868
[1]; [13]
  Difference: −0.43
[2]; [11]
  Cholesterol-free media + simvastatin (0.04 μM): 0.868
[2]; [12]
  Complete Media: 1.06
[2]; [14]
  Difference: 0.19

## CCN(CC)C(=O)c1cccc(C)c1 [Diethyltoluamide]
[1]; [15]
  Difference: −0.08
[1]; [16]
  Cholesterol-free: 1.096
[1]; [17]
  Complete: 1.015
[2]; [5]
  Cholesterol-free media + simvastatin (0.04 μM): 1.302
[2]; drug in complete media
  Complete Media: 1.098
[2]; [18]
  Difference: −0.20

## CN1Cc2c(Cl)cc(Cl)cc2[C@H](c2cccc(S(=O)(=O)NCCOCCOCCNC(=O)NCCCCNC(=O)NCCOCCOCCNS(=O)(=O)c3cccc([C@@H]4CN(C)Cc5c(Cl)cc(Cl)cc54)c3)c2)C1 [Tenapanor]
[1]; [7]
  Cholesterol-free: 0.6884
[1]; [8]
  Complete: 0.8628
[1]; complete vs cholesterol-free media, >0 enhanced anti-cancer activity, about 0 neutral, <0 antagonist
  Difference: 0.17
[2]; [19]
  Cholesterol-free media + simvastatin (0.04 μM): 1.602
[2]; [20]
  Complete Media: 1.62
[2]; [14]
  Difference: 0.02

## O=C1C2CC3CC1CC(O)(C3)C2 [Idramantone]
[1]; [21]
  Difference: −0.71
[1]; [3]
  Cholesterol-free: 1.638
[1]; [4]
  Complete: 0.9237
[2]; [11]
  Cholesterol-free media + simvastatin (0.04 μM): 1.208
[2]; [12]
  Complete Media: 1.085
[2]; [18]
  Difference: −0.12

## Nc1c(Br)cc(Br)cc1CN[C@H]1CC[C@H](O)CC1 [Ambroxol]
[1]; [22]
  Difference: −0.22
[1]; [10]
  Cholesterol-free: 1.134
[1]; NCI-H292 cells, complete media
  Complete: 0.9121
[2]; [11]
  Cholesterol-free media + simvastatin (0.04 μM): 1.121
[2]; [12]
  Complete Media: 0.9656
[2]; [18]
  Difference: −0.16

## COc1ccc2cc3[n+](cc2c1OC)CCc1cc2c(cc1-3)OCO2.[Cl-] [Berberine (chloride)]
[1]; [15]
  Difference: −0.09
[1]; [16]
  Cholesterol-free: 0.2752
[1]; [17]
  Complete: 0.1873
[2]; [19]
  Cholesterol-free media + simvastatin (0.04 μM): 0.3544
[2]; [20]
  Complete Media: 0.3946
[2]; [14]
  Difference: 0.04

## O=C(O)[C@H]1/C(=C/CO)O[C@@H]2CC(=O)N21 [Clavulanate (lithium)]
[1]; [22]
  Difference: 0.07
[1]; [7]
  Cholesterol-free: 1.545
[1]; [8]
  Complete: 1.617
[2]; [23]
  Cholesterol-free media + simvastatin (0.04 μM): 1.974
[2]; [24]
  Complete Media: 1.387
[2]; [18]
  Difference: −0.59

## CCOc1ccc(Cc2cc([C@@H]3O[C@H](CO)[C@@H](O)[C@H](O)[C@H]3O)ccc2Cl)cc1 [Dapagliflozin]
[1]; [15]
  Difference: −0.18
[1]; [16]
  Cholesterol-free: 1.052
[1]; [17]
  Complete: 0.875
[2]; [23]
  Cholesterol-free media + simvastatin (0.04 μM): 1.024
[2]; [24]
  Complete Media: 0.6919
[2]; [18]
  Difference: −0.33

## O=C[C@H](O)[C@@H](O)[C@H](O)CO [Xylose]
[1]; [10]
  Cholesterol-free: 1.238
[1]; NCI-H292 cells, complete media
  Complete: 0.9044
[1]; [13]
  Difference: −0.33
[2]; [11]
  Cholesterol-free media + simvastatin (0.04 μM): 1.188
[2]; [12]
  Complete Media: 1.083
[2]; [18]
  Difference: −0.11

## CNC(=O)c1ccc(N2C(=S)N(c3cnc(C#N)c(C(F)(F)F)c3)C(=O)C23CCC3)cc1F [Apalutamide]
[1]; [10]
  Cholesterol-free: 1.195
[1]; NCI-H292 cells, complete media
  Complete: 0.8274
[1]; [13]
  Difference: −0.37
[2]; [25]
  Cholesterol-free media + simvastatin (0.04 μM): 1.113
[2]; [26]
  Complete Media: 1.082
[2]; [27]
  Difference: −0.03

## C[C@H]1O[C@@H](n2cc(F)c(=O)[nH]c2=O)[C@H](O)[C@@H]1O [Doxifluridine]
[1]; [21]
  Difference: −0.49
[1]; [3]
  Cholesterol-free: 1.329
[1]; [4]
  Complete: 0.8392
[2]; [25]
  Cholesterol-free media + simvastatin (0.04 μM): 1.085
[2]; [26]
  Complete Media: 1.031
[2]; [27]
  Difference: −0.05
